This note sets out measurements from US20070037785A1, “Novel dipeptidyl peptidase IV inhibitors used for functionally influencing different cells and treating immunological, infammatory, neuronal, and other diseases” (priority 2003, published 2007).

The structures appear in SMILES notation.

The target of one experiment is dipeptidyl peptidase IV (Homo sapiens, UniProt P27487). Briefly: biochemical. To be noted: values marked with "*" are ID50 values; read-out: IC50DPIV, values marked with "*" = ID50.
Sequence of dipeptidyl peptidase IV (P27487 whole entry, species assumed): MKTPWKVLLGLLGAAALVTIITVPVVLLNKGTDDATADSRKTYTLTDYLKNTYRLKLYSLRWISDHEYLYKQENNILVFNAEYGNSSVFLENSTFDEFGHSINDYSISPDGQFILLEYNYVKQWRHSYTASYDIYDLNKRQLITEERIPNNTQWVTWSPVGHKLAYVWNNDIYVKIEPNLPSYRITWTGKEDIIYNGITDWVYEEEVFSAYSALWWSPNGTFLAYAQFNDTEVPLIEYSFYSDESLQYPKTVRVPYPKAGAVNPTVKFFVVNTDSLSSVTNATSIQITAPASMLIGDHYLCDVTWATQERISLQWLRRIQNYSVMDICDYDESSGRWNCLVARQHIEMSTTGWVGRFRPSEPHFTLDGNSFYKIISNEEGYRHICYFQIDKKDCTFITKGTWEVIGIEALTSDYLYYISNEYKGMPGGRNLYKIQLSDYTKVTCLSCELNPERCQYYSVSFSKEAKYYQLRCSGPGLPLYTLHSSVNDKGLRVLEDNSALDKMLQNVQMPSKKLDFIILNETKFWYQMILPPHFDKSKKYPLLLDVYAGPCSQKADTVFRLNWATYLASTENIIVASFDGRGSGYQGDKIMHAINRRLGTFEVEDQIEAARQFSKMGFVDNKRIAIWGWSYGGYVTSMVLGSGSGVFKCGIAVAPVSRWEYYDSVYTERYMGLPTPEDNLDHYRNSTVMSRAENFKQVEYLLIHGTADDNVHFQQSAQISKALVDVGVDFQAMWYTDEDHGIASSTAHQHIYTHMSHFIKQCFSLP
With `CCOC(=O)c1c(CNC(=O)CN2CCN(c3nc4c([nH]3)c(=O)[nH]c(=O)n4C)CC2)[nH]c2ccc(F)cc12` [D5.043], the IC50 came out at 69.8 µM.

With `CC12NCC(c3ccccc3)CC1O2` (stereo not shown) [D5.047], the IC50 worked out at 96.6 µM.

In the case of `CS(=O)(=O)N1CCN(c2ccc([N+](=O)[O-])c(NCc3ccc(Cl)cc3)c2)CC1` [D5.053], the IC50 turned out to be 361 µM.

With `O=C(Nc1cccc(/N=C/c2cc(/N=N\c3ccccc3Cl)ccc2O)c1)c1ccco1` [D6.003], the IC50 was 2.5 µM.

For `CCOC(=O)n1ccc(C(=O)Nc2cc(C)ccn2)n1` [D6.112], the IC50 stood at 148 µM.

As for `CCOC(=O)c1c(NC(=O)c2cccc([N+](=O)[O-])c2)sc(C(C)=O)c1C` [D6.117], the IC50 was 215 µM.

Turning to `O=C(CC1(O)OC(c2ccccc2)=CC1=O)c1ccccc1` (stereo not shown) [D6.122], the IC50 is 252 µM.

In the case of `COc1ccc(NC(=O)CSc2nnc3n2-c2sc4c(c2C(=O)C3CCc2ccccc2)CC(C)(C)OC4)cc1` (stereo not shown) [D6.126], the IC50 is 284 µM.

As for `CCn1c2ccccc2c2ccc(/C=N/NC(=O)c3ccc([N+](=O)[O-])cc3)cc21` [D7.001], the IC50 worked out at 165 µM.

For the molecule `COc1ccc(N(C(C)C(=O)N/N=C/c2ccc(Cl)cc2Cl)S(C)(=O)=O)cc1` (stereo not shown) [D9.001], the IC50 was 2.9 µM.

With `Cc1cc(NNC(=O)COc2ccc(Cl)cc2Cl)nc(NS(=O)(=O)c2ccccc2)n1` [D9.015], the IC50 stood at 465 µM.

As to `O=C(CCCCC(=O)N/N=C/c1ccc(OC(=O)c2cc([N+](=O)[O-])cc([N+](=O)[O-])c2)cc1)N/N=C/c1ccc(OC(=O)c2cc([N+](=O)[O-])cc([N+](=O)[O-])c2)cc1` [D10.001], the IC50 amounted to 1 µM.

As for `COc1cc(/C=N/NC(=O)c2cc(O)c(O)c(O)c2)cc(Br)c1OCc1ccccc1Cl` [D10.002], the IC50 turned out to be 2 µM.

As for `COc1ccc(N(C(C)C(=O)N/N=C/c2ccc(Cl)cc2Cl)S(C)(=O)=O)cc1` (stereo not shown) [D10.003], the IC50 was found to be 2.9 µM.

Take `C/C(=N\NC(=O)c1cc(-c2ccc(CC(C)C)cc2)n[nH]1)c1ccc2ccccc2c1` [D10.007]: the IC50 turned out to be 7.2 µM.

Still in this experiment, the particulars now being: values without "*" = IC-50; read-out: IC50DPIV.
With `CCN(CC)C(=O)C1CCCN(c2ccc([N+](=O)[O-])cc2/C=N/NC(=O)c2cccc([N+](=O)[O-])c2)C1` (stereo not shown) [D5.036], the IC50 turned out to be 54 µM.

In the case of `O=C1CCCC(=O)N1c1ccc(NCCc2ccc(O)cc2)c([N+](=O)[O-])c1` [D5.037], the IC50 came out at 54.8 µM.

For `CCOC(=O)C(NC(=O)c1ccccc1)(N1CCOCC1)C(F)(F)F` (stereo not shown) [D5.041], the IC50 turned out to be 61.9 µM.

Take `CN(C)CCNc1nc2c(c(=O)n(C)c(=O)n2C)n1Cc1ccccc1Cl` [D6.006]: the IC50 is 7.5 µM.

As for `CC(C)(C)C(=O)Nc1ccc(C(=O)Nc2nccs2)cc1` [D6.007], the IC50 came to 7.5 µM.

Regarding `Cc1ccc(C2N(CC(C)C)CC(C(=O)c3c(C)cccc3C)N2CCCN2CCCC2=O)cc1` (stereo not shown) [D6.008], the IC50 stood at 7.5 µM.

For `O=C(Nc1cccc(/N=C/c2cc(I)cc(I)c2O)c1)c1ccco1` [D6.010], the IC50 is 9.2 µM.

On to `Cc1cccc(-n2c(=O)c3c4c(sc3n3c(CC(C)C(=O)N5CCOCC5)nnc23)COC(C(C)C)C4)c1` (stereo not shown) [D6.012], for which the IC50 was 10.1 µM.

Consider `Nc1nonc1-n1nnc(C(=O)NN=C2c3ccccc3-c3ccccc32)c1-c1ccccc1` [D6.013], for which the IC50 turned out to be 10.1 µM.

Regarding `CCOC(=O)CC(N)c1cccs1` (stereo not shown) [D6.018], the IC50 worked out at 15.2 µM.

For the molecule `CCCn1c(N2CCN(CC(=O)c3c(C)n(C)c4ccccc34)CC2)nc2c1c(=O)[nH]c(=O)n2C` [D6.019], the IC50 worked out at 15.2 µM.

As to `CC(C)(C)S(=O)(=O)C1=CN2C3=C(CCCC3)NC2C=C1` (stereo not shown) [D6.020], the IC50 is 15.6 µM.

Consider `O=C(NCc1ccco1)C(=O)Nc1ccc(Br)cc1` [D6.021], for which the IC50 worked out at 16.1 µM.

Take `CCOC(=O)n1ccc(C(=O)Nc2ccccc2F)n1` [D6.026]: the IC50 was 17.9 µM.

Take `CC1CCN(C(=O)/C(=C\c2ccco2)NC(=O)c2ccc(Cl)cc2)CC1` [D6.027]: the IC50 came to 18.5 µM.

Consider `CCn1c(N2CCN(c3ccc(OC)cc3)CC2)nc2c1c(=O)[nH]c(=O)n2C` [D6.028], for which the IC50 is 19.2 µM.

As to `O=C(/C=C/c1ccco1)c1ccccc1` [D6.029], the IC50 was 19.7 µM.

For `CCSc1nnc2n(-c3ccc(OC)cc3)c(=O)c3c4c(sc3n12)CCCC4` [D6.031], the IC50 was 20.2 µM.

Take `Cc1cc([N+](=O)[O-])c(C)cc1-c1ccc(/C=C/c2cc(C(F)(F)F)nc(=O)[nH]2)o1` [D6.034]: the IC50 was determined as 20.6 µM.

As for `Cc1ccccc1C(=O)N/N=C/c1ccc([N+](=O)[O-])o1` [D6.036], the IC50 was 20.9 µM.

Consider `CC(C)C1Cc2c(sc3c2c(=O)n(Cc2ccccc2)c2nnc(SCC(=O)O)n32)CO1` (stereo not shown) [D6.037], for which the IC50 worked out at 18.9 µM.

Turning to `CNc1nc2c(c(=O)[nH]c(=O)n2C)n1Cc1ccccc1Cl` [D6.043], the IC50 was determined as 27.8 µM.

Turning to `Cc1cc2ccccc2n1CCNC(=O)c1cccs1` [D6.044], the IC50 amounted to 28.8 µM.

As to `CCCn1c(N2CCN(CC(=O)c3c[nH]c4ccccc34)CC2)nc2c1c(=O)[nH]c(=O)n2C` [D6.046], the IC50 worked out at 30.8 µM.

As to `N#Cc1c(CC(=O)C(C(F)(F)F)C(F)(F)F)sc2c1CCC2` [D6.047], the IC50 stood at 30.9 µM.

Turning to `CCCC(=O)Cc1ccc(N(C(=O)CCC)S(=O)(=O)c2cccs2)cc1` [D6.048], the IC50 amounted to 31.3 µM.

Turning to `CN(/N=C/c1sc(=O)[nH]c1Cl)c1ccccc1` [D6.049], the IC50 turned out to be 32.4 µM.

Take `Cc1ccc(C(=O)C2(C)N(O)C(C)C(c3cccs3)=[N+]2[O-])cc1` (stereo not shown) [D6.053]: the IC50 was 34.1 µM.

For the molecule `CCOC(=O)c1c(C)oc2c1c1c(c3ccccc32)OCN(C2CCS(=O)(=O)C2)C1` (stereo not shown) [D6.054], the IC50 worked out at 34.2 µM.

With `CC1=C(C#N)C(=O)N(CCCO)C(=O)/C1=C\c1ccc(-c2cc(C)c(C)cc2[N+](=O)[O-])o1` [D6.055], the IC50 was 34.8 µM.

As to `CCOC(=O)c1cn(-c2ccc(N3C(=O)CSCC3=O)cc2)nc1C` [D6.056], the IC50 was 37.4 µM.

Consider `Cc1ccccc1NC(=O)CSC1=NCCN1` [D6.057], for which the IC50 stood at 38.1 µM.

As for `N#Cc1c(NC(=O)C(C(F)(F)F)C(F)(F)F)sc2c1CCCC2` [D6.058], the IC50 was determined as 39.5 µM.

With `CCc1c(C)[nH]c2c1/C(=N\OC(=O)C(C)C)CCC2` [D6.062], the IC50 amounted to 43.8 µM.

Consider `Cn1c(=O)c2c(nc(NCCO)n2Cc2ccccc2Cl)n(C)c1=O` [D6.063], for which the IC50 was 44 µM.

With `C=CCOC(=O)c1cc(-c2ccc(/C=C3/C(=O)N(CCCO)C(=O)C(C#N)=C3C)o2)ccc1Cl` [D6.065], the IC50 stood at 44.6 µM.

Take `Cc1ccc(C(=O)N/C(=C\c2ccco2)C(C)N2CCOCC2)cc1C` (stereo not shown) [D6.067]: the IC50 turned out to be 46.5 µM.

In the case of `CC1C(=O)N(Cc2ccccc2)C(=O)c2c1nc(N1CCNCC1)n2Cc1ccccc1` (stereo not shown) [D6.069], the IC50 was 48.3 µM.

As for `CCCCOC(=O)c1cc(-c2ccc(/C=C3/C(=O)N(CC(C)O)C(=O)C(C#N)=C3C)o2)ccc1Cl` (stereo not shown) [D6.070], the IC50 turned out to be 49 µM.

In the case of `CC1=C(C#N)C(=O)N(CCO)C(=O)/C1=C\c1ccc(-c2cc(Cl)ccc2Cl)o1` [D6.071], the IC50 was 51.7 µM.

As to `Cc1ccc(Cn2cccc2/C=N/NC(=S)Nc2ccc(C)c(C)c2)cc1` [D6.078], the IC50 was determined as 55.2 µM.

Regarding `CCCc1cccc(/C=N/NC(=O)c2cc(-c3ccc(F)cc3)n[nH]2)c1O` [D6.079], the IC50 was determined as 55.3 µM.

In the case of `CCOc1ccc(/C=N/NC(=O)c2cc(-c3c(OC)ccc4ccccc34)n[nH]2)cc1` [D6.081], the IC50 was 56.3 µM.

On to `CCOC(=O)c1cc(-c2ccc(/C=C3/C(=O)NC(=O)C(C#N)=C3C)o2)ccc1Cl` [D6.082], for which the IC50 was found to be 56.7 µM.

Consider `CC1CCc2c(sc(NC(=O)C(C(F)(F)F)C(F)(F)F)c2C#N)C1` (stereo not shown) [D6.083], for which the IC50 was found to be 59.8 µM.

Regarding `Cc1ccc(/C=N/NC(=O)c2cccc(I)c2)o1` [D6.084], the IC50 is 57.4 µM.

For the molecule `CCC(N)C(=O)c1cccs1` (stereo not shown) [D6.085], the IC50 came out at 61.4 µM.

With `CCOC(=O)c1ccc(-c2ccc(/C=C3\C(=O)N(CCO)C(=O)C(C#N)=C3C)o2)cc1` [D6.087], the IC50 was found to be 65.9 µM.

Turning to `CC1=C(C#N)C(=O)N(CC(C)O)C(=O)/C1=C/c1ccc(-c2ccc(Br)cc2)o1` (stereo not shown) [D6.089], the IC50 is 73.8 µM.

Consider `Cc1ccc(C(=O)N/C(=C/c2ccco2)C(=O)N(C)C)cc1` [D6.091], for which the IC50 was determined as 47.7 µM.

`CCCOC(=O)c1cc(-c2ccc(/C=C3\C(=O)N(CCCO)C(=O)C(C#N)=C3C)o2)ccc1Cl` [D6.092]: the IC50 came to 76.3 µM.

In the case of `CCCOC(=O)c1cc(-c2ccc(/C=C3/C(=O)N(CC(C)O)C(=O)C(C#N)=C3C)o2)ccc1Cl` (stereo not shown) [D6.095], the IC50 stood at 82.2 µM.

Regarding `COc1ccc(-c2ccc(C3Nc4ccc5ccccc5c4C4=C3C(=O)CC(C)(C)C4)o2)cc1Cl` (stereo not shown) [D6.098], the IC50 was 87.9 µM.

`CC1=C(C#N)C(=O)N=C(O)/C1=C\c1ccc(-c2ccc(Cl)cc2Cl)o1` [D6.101]: the IC50 was determined as 95.8 µM.

With `COC(=O)c1ccc(NC(=O)/C(=C\c2cccc([N+](=O)[O-])c2)NC(=O)c2ccc(Br)o2)cc1` [D6.108], the IC50 turned out to be 115 µM.

Consider `Cc1ccc(S(=O)(=O)CNC(=S)c2ccc3ccccc3c2)cc1` [D9.002], for which the IC50 is 14.5 µM.

On to `CCCC(=O)Oc1ccc(N(C(=O)CCC)S(=O)(=O)c2cccs2)cc1` [D9.004], for which the IC50 turned out to be 31.3 µM.

For the molecule `CCOC(=O)c1c(C)oc2c1c1c(c3ccccc32)OCN(C2CCS(=O)(=O)C2)C1` (stereo not shown) [D9.006], the IC50 is 34.2 µM.

`CS(=O)(=O)N1CCN(C(=O)Nc2ccc(C(F)(F)F)cc2)C1C(=O)NCc1cccc(N)c1` (stereo not shown) [D9.007]: the IC50 worked out at 40.5 µM.

Consider `CCOP(=O)(CC(=O)N1CCN(C(=O)Nc2cccc(Br)c2)C1C(=O)NCc1cccc(CN)c1)OCC` (stereo not shown) [D9.008], for which the IC50 was determined as 46.3 µM.

In the case of `COc1ccc(NS(=O)(=O)c2ccc(/N=C/c3cc(Br)cc(Br)c3O)cc2)nn1` [D9.010], the IC50 turned out to be 88.8 µM.

On to `O=C(N/N=C/c1ccc([N+](=O)[O-])c(O)c1)/C(=C\c1cccs1)NC(=O)c1ccccc1` [D10.004], for which the IC50 is 6.5 µM.

With `CCC(=O)Oc1ccc(/C=N/NC(=O)c2ccccc2[N+](=O)[O-])c(OC(=O)CC)c1` [D10.005], the IC50 was 6.6 µM.

In the case of `CN(C)c1ccc(/C=N\NC(=O)c2cc(N)ccc2O)cc1` [D10.008], the IC50 was found to be 7.6 µM.
